Assay: Human HepG2 cell viability assay in 384 well format
Type: toxicity, cell-based
Design: dose 125 nL, time 70.5 hour; cytotoxicity at 70.5 h: concentration not given beside the values
Settings: HepG2 cells, read-out: Inhibition

Row | Structure (SMILES) | cytotoxicity at 70.5 h [%]
1 | O=c1cc(Cn2ccnc2)nc2n1CCCN(Cc1ccc(F)cc1)C2 | -14.3
2 | O=c1cc(Cn2ccnc2)nc2n1CCCN(Cc1ccncc1)C2 | -21.3
3 | O=C(Nc1ccccc1)[C@H]1C[C@@H]2CN(C(=O)Nc3ccccc3)C[C@H]1O2 | -27.2
4 | CC(=O)N1CCN(C(=O)NC(C)C)CC2(CNC(=O)C2)C1 (stereo not given) | -28.3
5 | CCS(=O)(=O)N1CCN(C(=O)NC(C)C)CC2(CNC(=O)C2)C1 (stereo not given) | -26.5
6 | O=S1(=O)c2ccccc2OCC2(CCN(CCO)CC2)CN1CC1CC1 | -0.378
7 | CCS(=O)(=O)N1CCc2cc(C(=O)NC)c(NCC3CC3)nc2CC1 | -4.13
8 | COCCCNC(=O)CCn1ncc2c(Cl)cccc21 | -7.64
9 | O=C1c2cnc(N3CCCC3)nc2CN1CCc1ccc(Cl)cc1 | -6.15
10 | Cc1nn(C)c2cnn(Cc3ccc(C(=O)N4CCN(C)CC4)o3)c12 | 28.4
11 | CCn1nc(C)c2c1cnn2CCNS(C)(=O)=O | -6.31
12 | CCn1nc(C)c2c1cnn2CCNS(=O)(=O)CC | 3.21
13 | CCn1ncc(NC(=O)CCn2ncc3c(Cl)cccc32)c1C | 7.52
14 | COCCNC(=O)CCn1ncc2c(Cl)cccc21 | 16.6
15 | CCn1ccc(NC(=O)CCn2nc(C)c3ccccc32)n1 | -10.3
16 | CCn1nc(C)cc1NC(=O)CCn1nc(C)c2ccccc21 | -10.1
17 | CN(C)C(=O)c1nnc2ccc(N3CCOCC3)cc2n1 | -2.48
18 | O=C(NC1CCCCC1)c1nnc2ccc(N3CCOCC3)cc2n1 | -8.08
19 | COCCNC(=O)c1nnc2ccc(N3CCOCC3)cc2n1 | 23.1
20 | CNC(=O)c1nnc2ccc(N3CCOCC3)cc2n1 | -4.03
21 | Cc1nn(C)c(C)c1NC(=O)CCn1ncc2ccccc21 | 9.95
22 | CCn1ccc(C(=O)Nc2ccc3c(c2)C(C)(C)C(=O)N3C)n1 | -15.5
23 | CCCn1ccc(C(=O)Nc2ccc3c(c2)C(C)(C)C(=O)N3C)n1 | 13.3

Row | Structure (SMILES) | cytotoxicity at 70.5 h [%]
24 | NCc1n[nH]c(-c2ccc(Br)cc2)n1 | 2.27
25 | CCn1nc(C)c2ncnc(N(C)Cc3ccco3)c21 | -1.38
26 | CCn1nc(C)c2ncnc(NCCCn3ccnc3)c21 | -9.37
27 | CCN(Cc1ccccc1)c1ncnc2c(C)nn(CC)c12 | -4.47
28 | CCn1nc(C)c2nc(C)nc(NC3CCCC3)c21 | -7.43
29 | CCn1nc(C)c2nc(C)nc(NCCc3ccccc3)c21 | 2.39
30 | CCc1nc(NCCCn2cccn2)c2c(n1)c(C)nn2CC | 14.8
31 | CCc1nc(Nc2cccc(C(=O)NC)c2)c2c(n1)c(C)nn2CC | -11
32 | CCn1nc(C)c2ncnc(NCCn3cccn3)c21 | -1.42
33 | CCCc1nc(NCC(=O)N2CCOCC2)c2c(n1)c(C)nn2CC | 44.1
34 | CCCc1nc(NCCOC)c2c(n1)c(C)nn2CC | -7.81
35 | Cc1nn(C)c2c(NC3CCCC3)nc(C3CC3)nc12 | -7.15
36 | COc1ccc(CNc2nc(C3CC3)nc3c(C)nn(C)c23)cc1 | -0.926
37 | CCn1nc(C)c2nc(C(C)C)nc(NCC(C)O)c21 (stereo not given) | -6.78
38 | CCn1nc(C)c2nc(C(C)C)nc(NCC(C)C)c21 | -8.62
39 | CCCc1nc(NCCCOCC)c2c(n1)c(C)nn2CC | -18.2
40 | CCCc1nc(N2CCC(C)CC2)c2c(n1)c(C)nn2CC | -10.6
41 | Cc1nn(C)c2c(N(C)Cc3cccs3)nc(C3CC3)nc12 | 22.5
42 | Cc1nn(C)c2c(NCc3ccncc3)nc(C3CC3)nc12 | 3.06
43 | CCn1nc(C)c2nc(C(C)C)nc(NCCc3ccc(O)cc3)c21 | -7.1
44 | CSc1ncnc(NCc2ccco2)c1C#N | -12.3
45 | Cc1cccc2c1cnn2CCCNC(=O)c1cnn(C)c1 | -2.01
46 | CCN(CC)C(=O)c1nnsc1-c1ccc(C)cc1 | -8.98

Row | Structure (SMILES) | cytotoxicity at 70.5 h [%]
47 | Cc1ccc(-c2snnc2C(=O)NCCCO)cc1 | -11.1
48 | COc1cc(C(=O)NCCCO)cc2occc12 | -9.45
49 | CCOc1cc(C(=O)N2CCN(C)CC2)cc2occc12 | 3.95
50 | CCOC(=O)N1CCN(C(=O)c2cc(OCC)c3ccoc3c2)CC1 | 50
51 | CCOC(=O)C1CCN(C(=O)c2cc(OCC)c3ccoc3c2)CC1 | -10.7
52 | COCc1cccc(S(=O)(=O)Nc2ncc(C)s2)c1 | -12.2
53 | CSCc1cccc(S(=O)(=O)NCc2cnn(C)c2C)c1 | -2.3
54 | COCCNS(=O)(=O)c1cccc(CSC)c1 | 18.6
55 | CSCc1cccc(S(=O)(=O)N2CCCCCC2)c1 | -4.01
56 | CSCc1cccc(S(=O)(=O)N2CCCC2)c1 | -6.64
57 | CSCc1cccc(S(=O)(=O)N2CCCCC2)c1 | -6.14
58 | CCNS(=O)(=O)c1cccc(CSC)c1 | 5.32
59 | CCN(CC)c1nc(C)cc(C(=O)Nc2cccc(C(N)=O)c2)n1 | -7.03
60 | Cc1nn(C(C)C)c2cn(CC(=O)NC3CCSCC3)nc12 | -3.25
61 | COc1cccc(CNC(=O)c2cc(C)nc(N3CCCCC3)n2)c1 | -9.69
62 | Cc1cc(C(=O)NCc2cnn(C)c2C)nc(N2CCCCCC2)n1 | -3.96
63 | CCN1CCN(c2ncc3c(=O)n(Cc4ccco4)ccc3n2)CC1 | -5.38
64 | Oc1ccc(Cl)cc1CNCc1ccccc1Cl | -8.63
65 | Oc1ccc(Cl)cc1CNCc1ccccc1C(F)(F)F | -2.09
66 | Oc1ccc(Cl)cc1CNCc1cccc(C(F)(F)F)c1 | -12.9
67 | COc1cccc(CNCc2cccc(Cl)c2)c1O | -4.96
68 | COc1cccc(CNCc2ccc(F)cc2Cl)c1O | -1.41
69 | CSc1nc2ccsc2c(=O)n1CC(=O)NC1CCCCC1 | -6.83

Row | Structure (SMILES) | cytotoxicity at 70.5 h [%]
70 | CSc1nc2ccsc2c(=O)n1CC(=O)N1CCCCC1C (stereo not given) | -9.11
71 | CSc1nc2ccsc2c(=O)n1CC(=O)N(C)c1ccccc1 | -4.9
72 | CCN(CC)C(=O)CSc1nc2cc(C)nc-2c(O)n1CC | 6.98
73 | Cc1cc2nc(SCC(=O)N3CCCC3)n(Cc3ccco3)c(O)c-2n1 | -8.29
74 | O=C(c1nn[nH]c1Nc1ccc(Cl)cc1)N1CCSCC1 | 9.23
75 | c1cnc(-c2nn3c(CN4CCCCCC4)nnc3s2)cn1 | -8.05
76 | Cc1cc(C(=O)N(C)Cc2cccs2)nc(N2CCOCC2)n1 | -0.782
77 | CCC(Oc1ccccc1)c1nn2c(CN(CC)CC)nnc2s1 (stereo not given) | -7.01
78 | Cc1cc2n(n1)[C@@H](C(F)(F)F)C[C@@H](C1CCCN(C(=O)C(C)C)C1)N2 (stereo not given in full) | -3.95
79 | CCCC(=O)N1CCC([C@@H]2C[C@H](C(F)(F)F)n3nc(C)cc3N2)CC1 | -6.51
80 | Cc1cc2n(n1)[C@@H](C(F)(F)F)C[C@@H](C1CCN(C(=O)C(C)C)CC1)N2 | -1.78
81 | O=C(CCc1cc(Cl)no1)N1CCC(c2cc3ncccc3cn2)CC1 | 0.563
82 | Cc1cc(C)nc(N2CCC(CNC(=O)c3cnccn3)CC2)n1 | 3.07
83 | Cc1cc(C)nc(N2CCC(CNC(=O)c3ccccn3)CC2)n1 | 2.6
84 | CCCN1C[C@H](NC(=O)c2cc(C)no2)[C@@H](c2ccc(OC)cc2)C1 | 0.817
85 | CC(=O)c1cc(C(=O)N2Cc3ccccc3OC3(CCOCC3)C2)cs1 | 6.07
86 | Cc1cnc(C(=O)N2Cc3ccccc3OC3(CCOCC3)C2)cn1 | 1.74
87 | Cc1cnc(C(=O)N2Cc3cc(Cl)ccc3OC3(CCOCC3)C2)cn1 | 1.54
88 | Nc1nonc1C(=O)N1Cc2ccccc2OC2(CCOCC2)C1 | 2.48
89 | O=C(CN1CCC(c2cc(=O)n3c(n2)CCCCC3)CC1)N1CCCC1 | 1.49
90 | CCS(=O)(=O)N1C[C@H]2CC[C@](O)(c3ccc(C)cc3)[C@H]2C1 | 2.5
91 | Cc1ccc([C@@]2(O)CC[C@@H]3CN(S(=O)(=O)C(C)C)C[C@@H]32)cc1 | 2.49
92 | O=C(Cc1ccccn1)N1CCC(c2noc(-c3ccncc3)n2)CC1 | 5.1

Row | Structure (SMILES) | cytotoxicity at 70.5 h [%]
93 | COc1ccccc1C1=NOC(CC2(C(=O)NC(C)C)CCOCC2)C1 (stereo not given) | -4.53
94 | CC(C)CNC(=O)C1(Cc2ccccc2-c2cccs2)CCNC1 (stereo not given) | -0.684
95 | COCCOCC(=O)N1C[C@@H]2CC[C@H](Oc3ccccc3F)[C@@H]2C1 | 12.1
96 | COCCOCC(=O)N1C[C@@H]2CC[C@H](Oc3cccc(F)c3)[C@@H]2C1 | -3.05
97 | CCOCC(=O)N1C[C@@H]2CC[C@H](Oc3ccccc3)[C@@H]2C1 | -3.41
98 | Cc1csc2nc3n(c(=O)c12)CCN(Cc1c[nH]cn1)CC3 | 0.274
99 | COc1ccccc1CNC(Cc1cccs1)c1nc(C)c(C)s1 (stereo not given) | 8.5
100 | COc1ccc(CNC(Cc2cccs2)c2nc(C)c(C)s2)cc1OC (stereo not given) | 2.99
101 | COc1cccc(CNC(Cc2cccs2)c2nc(C)c(C)s2)c1OC (stereo not given) | -1.23
102 | CCN(C)c1ncnc2c1CCN(C(=O)Cc1ccccn1)CC2 | -9.09
103 | CNC(=O)c1cc2c(nc1NCC(C)C)CCN(c1ccncn1)CC2 | -0.746
104 | Fc1ccc(CN2CCn3cc(Cn4cccn4)nc3C2)cc1 | -20.8
105 | Cc1nc(CN2CC3(CCN(c4ncccn4)C3)CC2=O)cs1 (stereo not given) | -23.8
106 | COc1ncccc1CN1C[C@@H]2COC[C@]2(CNS(C)(=O)=O)C1 | -13.2
107 | CNC(=O)c1cc2c(nc1NCC1CC1)CCN(CC1CC1)CC2 | -26.7
108 | c1cncc(OCc2noc3c2CN(Cc2ccsc2)CC3)c1 | 15.9
109 | CCc1ccc(CN2CCCn3c(nc(Cn4ccnc4)cc3=O)C2)o1 | -0.664
110 | CNC(=O)CN1CCOCC2(CN(CCC(F)(F)F)CCO2)C1 (stereo not given) | 4.91
111 | COc1ccc(CN2CCn3c(CO)nnc3C2)cc1CN1CCCC1 | 2.95
112 | Cc1ccc(CN(CCCn2ccnc2)Cc2c(F)cccc2F)s1 | 24
113 | Cc1ccc(CN(CCCn2ccnc2)Cc2cnn(C)c2)s1 | 25.9
114 | Cc1ccc(O)c(CN(CCCn2ccnc2)Cc2ccc(C)s2)c1 | 0.701
115 | Cc1ccc(CN(CCCn2ccnc2)Cc2c[nH]nc2C(C)(C)C)s1 | -0.375

— ChEMBL document CHEMBL3507680, “University of Dundee, Gates Library screen for HepG2 cell viability”
